The term IC50 denotes the concentration that gives 50% inhibition. A low value points to inhibition by little substance.

The record followed here is patent US20260209248A1, “INHIBITORS OF KIF18A AND USES THEREOF” (Insilico Medicine IP Limited, priority 2022, published 2026).

The assay addresses T1, KIF18A (Homo sapiens, UniProt Q8NI77).
T1 sequence (Q8NI77 1-898): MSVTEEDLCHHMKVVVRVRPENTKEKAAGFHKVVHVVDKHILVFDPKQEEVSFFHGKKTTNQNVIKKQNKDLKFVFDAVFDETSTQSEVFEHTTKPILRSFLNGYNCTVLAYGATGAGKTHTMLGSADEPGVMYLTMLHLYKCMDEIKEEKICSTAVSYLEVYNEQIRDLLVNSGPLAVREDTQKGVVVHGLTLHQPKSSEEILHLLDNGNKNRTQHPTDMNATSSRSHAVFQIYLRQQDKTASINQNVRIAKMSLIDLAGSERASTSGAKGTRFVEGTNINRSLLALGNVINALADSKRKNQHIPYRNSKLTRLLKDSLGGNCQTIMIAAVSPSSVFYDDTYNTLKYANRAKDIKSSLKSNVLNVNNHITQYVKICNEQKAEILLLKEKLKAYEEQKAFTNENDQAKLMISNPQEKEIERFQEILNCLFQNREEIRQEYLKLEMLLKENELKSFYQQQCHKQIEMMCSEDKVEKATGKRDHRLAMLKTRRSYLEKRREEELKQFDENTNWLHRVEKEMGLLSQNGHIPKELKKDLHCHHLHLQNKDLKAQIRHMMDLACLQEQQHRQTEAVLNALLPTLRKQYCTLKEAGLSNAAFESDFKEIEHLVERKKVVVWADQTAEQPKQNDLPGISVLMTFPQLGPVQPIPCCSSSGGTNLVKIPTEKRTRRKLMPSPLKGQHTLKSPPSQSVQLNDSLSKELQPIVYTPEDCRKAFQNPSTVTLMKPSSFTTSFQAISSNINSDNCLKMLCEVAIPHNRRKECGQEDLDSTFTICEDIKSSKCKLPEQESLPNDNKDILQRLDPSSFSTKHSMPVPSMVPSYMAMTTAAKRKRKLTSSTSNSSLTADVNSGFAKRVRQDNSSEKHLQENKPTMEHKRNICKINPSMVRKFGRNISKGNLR
Put plainly: KIF18A Assay (ADP Glo luminescence). Particulars: enzyme pre-incubated 15 min at 25° C., ATP reaction 60 min, 10 pts 1:3 dilution. It is filed as biochemical. Here is the method:
The KIF18A assay was performed as follows:
1.1. Prepared 1× kinase Buffer 1.2. […] 1.3. Data analysis−Calculated IC50 and plot dose-response curve of compounds: • Calculated IC50 by fitting % Inhibition values and log of compound concentrations to nonlinear regression (dose response−variable slope) with GraphPad 6.0.
[formula] • X: log of inhibitor concentration; Y: % Inhibition
On the technique in general: ADP-Glo turns the ADP formed in a reaction into a luminescent signal.

As for `O=C(Nc1cccn(CCCC(F)(F)F)c1=O)c1ccc(NS(=O)(=O)CCO)cc1N1CCC2(CC1)CC2` [EX04, 4-((2-hydroxyethyl)sulfonamido)-N-(2-oxo-1-(4,4,4-trifluorobutyl)-1,2-dihydropyridin-3-yl)-2-(6-azaspiro[2.5]octan-6-yl)benzamide], the IC50 lay within 50 to 500 nM.

Compound `CN1CCCOc2c(NC(=O)c3ccc(NS(=O)(=O)CCO)cc3N3CCC4(CC3)CC4)ccnc21` [EX02, 4-((2-hydroxyethyl)sulfonamido)-N-(5-methyl-2,3,4,5-tetrahydropyrido[3,2-b][1,4]oxazepin-9-yl)-2-(6-azaspiro[2.5]octan-6-yl)benzamide] gave a concentration for half-maximal inhibition (IC50) of less than 50 nM. `O=C(Nc1ccnc2c1OCC1COCCN21)c1ccc(NS(=O)(=O)CCO)cc1N1CCC2(CC1)CC2` (stereo not drawn) [EX01, 4-((2-hydroxyethyl)sulfonamido)-2-(6-azaspiro[2.5]octan-6-yl)-N-(6a,7,9,10-tetrahydro-6H-[1,4]oxazino[4,3-d]pyrido[3,2-b][1,4]oxazin-4-yl)benzamide] gave a concentration for half-maximal inhibition (IC50) of less than 50 nM. Turning to `O=C(Nc1ccc(=O)n(C2CCOCC2)n1)c1ccc(NS(=O)(=O)CCO)cc1N1CCC2(CC1)CC2` [EX05, 4-((2-hydroxyethyl)sulfonamido)-N-(6-oxo-1-(tetrahydro-2H-pyran-4-yl)-1,6-dihydropyridazin-3-yl)-2-(6-azaspiro[2.5]octan-6-yl)benzamide], the IC50 is 50 to 500 nM. The same measure for `O=C(Nc1ccnc2c1OCC1CC(F)(F)CCN21)c1cc2c(cc1N1CCC3(CC1)CC3)N(S(=O)(=O)CCO)CC2` (stereo not drawn) [EX19, N-(8,8-difluoro-6,6a,7,8,9,10-hexahydrodipyrido[3,2-b:1′,2′-d][1,4]oxazin-4-yl)-1-((2-hydroxyethyl)sulfonyl)-6-(6-azaspiro[2.5]octan-6-yl)indoline-5-carboxamide]: less than 50 nM; for `O=C(Nc1ccc2c(n1)N1CCC(F)(F)CC1CO2)c1ccc(NS(=O)(=O)CCO)cc1N1CCC2(CC1)CC2` (stereo not drawn) [EX07, N-(8,8-difluoro-6,6a,7,8,9,10-hexahydrodipyrido[3,2-b:1′,2′-d][1,4]oxazin-2-yl)-4-((2-hydroxyethyl)sulfonamido)-2-(6-azaspiro[2.5]octan-6-yl)benzamide]: less than 50 nM; for `O=C(Nc1cccc(N2CCOCC2)n1)c1cc2c(cc1N1CCC3(CC1)CC3)N(S(=O)(=O)CCO)CC2` [EX14, 1-((2-hydroxyethyl)sulfonyl)-N-(6-morpholinopyridin-2-yl)-6-(6-azaspiro[2.5]octan-6-yl)indoline-5-carboxamide]: less than 50 nM. The compound `Cc1cc(NC(=O)c2cc3c(cc2N2CCC4(CC2)CC4)N(S(C)(=O)=O)CC3)nc(N2CCC(F)(F)CC2)n1` [EX20, N-(2-(4,4-difluoropiperidin-1-yl)-6-methylpyrimidin-4-yl)-1-(methylsulfonyl)-6-(6-azaspiro[2.5]octan-6-yl)indoline-5-carboxamide] displayed an IC50 of 50 to 500 nM. Consider `COCCS(=O)(=O)N1CCc2cc(C(=O)Nc3cccc(N4CCOCC4)n3)c(N3CCC4(CC3)CC4)cc21` [EX13, 1-((2-methoxyethyl)sulfonyl)-N-(6-morpholinopyridin-2-yl)-6-(6-azaspiro[2.5]octan-6-yl)indoline-5-carboxamide], for which the IC50 lay in the range of 500 to 15000 nM. Compound `O=C(Nc1ccc(=O)n(CCCC(F)(F)F)n1)c1ccc(NS(=O)(=O)CCO)cc1N1CCC2(CC1)CC2` [EX08, 4-((2-hydroxyethyl)sulfonamido)-N-(6-oxo-1-(4,4,4-trifluorobutyl)-1,6-dihydropyridazin-3-yl)-2-(6-azaspiro[2.5]octan-6-yl)benzamide] had an IC50 of less than 50 nM.

`Cc1cc(NC(=O)c2cc3c(cc2N2CCC4(CC2)CC4)N(S(=O)(=O)CCO)CC3)nc(N2CCC(F)(F)CC2)n1` [EX15, N-(2-(4,4-difluoropiperidin-1-yl)-6-methylpyrimidin-4-yl)-1-((2-hydroxyethyl)sulfonyl)-6-(6-azaspiro[2.5]octan-6-yl)indoline-5-carboxamide] had an IC50 of less than 50 nM. The same measure for `O=C(Nc1ccc2c(n1)N1CCOCC1CO2)c1ccc(NS(=O)(=O)CCO)cc1N1CCC2(CC1)CC2` (stereo not drawn) [EX03, 4-((2-hydroxyethyl)sulfonamido)-2-(6-azaspiro[2.5]octan-6-yl)-N-(6a,7,9,10-tetrahydro-6H-[1,4]oxazino[4,3-d]pyrido[3,2-b][1,4]oxazin-2-yl)benzamide]: less than 50 nM; for `O=C(Nc1ccc(=O)n(C2CCC(F)(F)CC2)n1)c1cc2c(cc1N1CCC3(CC1)CC3)N(S(=O)(=O)CCO)CC2` [EX21, N-(1-(4,4-difluorocyclohexyl)-6-oxo-1,6-dihydropyridazin-3-yl)-1-((2-hydroxyethyl)sulfonyl)-6-(6-azaspiro[2.5]octan-6-yl)indoline-5-carboxamide]: less than 50 nM; for `O=C(Nc1ccc(=O)n(C2CCOCC2)c1)c1ccc(NS(=O)(=O)CCO)cc1N1CCC2(CC1)CC2` [EX06, 4-((2-hydroxyethyl)sulfonamido)-N-(6-oxo-1-(tetrahydro-2H-pyran-4-yl)-1,6-dihydropyridin-3-yl)-2-(6-azaspiro[2.5]octan-6-yl)benzamide]: 500 to 15000 nM. In the case of `O=C(Nc1ccnc2c1OCC1CC(F)(F)CCN21)c1ccc(NS(=O)(=O)CCO)cc1N1CCC2(CC1)CC2` (stereo not drawn) [EX10, N-(8,8-difluoro-6,6a,7,8,9,10-hexahydrodipyrido[3,2-b:1′,2′-d][1,4]oxazin-4-yl)-4-((2-hydroxyethyl)sulfonamido)-2-(6-azaspiro[2.5]octan-6-yl)benzamide], the IC50 is less than 50 nM. `CC(C)n1nc(NC(=O)c2cc3c(cc2N2CCC4(CC2)CC4)N(S(=O)(=O)CCO)CC3)ccc1=O` [EX22, 1-((2-hydroxyethyl)sulfonyl)-N-(1-isopropyl-6-oxo-1,6-dihydropyridazin-3-yl)-6-(6-azaspiro[2.5]octan-6-yl)indoline-5-carboxamide] gave an IC50 of less than 50 nM.

As to `O=C(Nc1ccc(=O)n(C2CC(F)(F)C2)n1)c1cc2c(cc1N1CCC3(CC1)CC3)N(S(=O)(=O)CCO)CC2` [EX18, N-(1-(3,3-difluorocyclobutyl)-6-oxo-1,6-dihydropyridazin-3-yl)-1-((2-hydroxyethyl)sulfonyl)-6-(6-azaspiro[2.5]octan-6-yl)indoline-5-carboxamide], the IC50 is less than 50 nM. The compound `Cc1cc(NC(=O)c2cc3c(cc2N2CCC4(CC2)CC4)N(C(=O)CCO)CC3)nc(N2CCC(F)(F)CC2)n1` [EX25, N-(2-(4,4-difluoropiperidin-1-yl)-6-methylpyrimidin-4-yl)-1-(3-hydroxypropanoyl)-6-(6-azaspiro[2.5]octan-6-yl)indoline-5-carboxamide] returned an IC50 of 500 to 15000 nM.
